We go through 38 molecules from PubChem BioAssay AID2423 (Broad Institute, 2010).

A word on the EC50: it is the concentration at which the effect is half-maximal.

Structures are written as SMILES. Results filed as inconclusive are left out. Calls of active or inactive are those of the source. No rule for the calls is given here. Some results are limits rather than exact numbers.

The assay concerns C. albicans CaCi-8 + fluconazole, Alamar Blue growth, 48 h. Nature of the assay: resistant C. albicans growth inhibition with fluconazole, dose response, CaCi-8 strain, Alamar Blue fluorescence (AID 2423).
As to `COc1ccc(C(C(=O)NC2CCCCC2)N(Cc2cccs2)C(=O)Cc2c[nH]c3ccccc23)cc1` (stereo not drawn), the EC50 is > 15000 nM (inactive).
Regarding `CN(C)c1cc(N/N=C/c2ccc(Cl)cc2)nc(N(C)C)n1`, the concentration for a half-maximal effect (EC50) is 695 nM.
The result for `O=C(COc1ccc(F)cc1)Nc1nc(-c2ccccn2)cs1` reads 2230 nM; that for `Cc1onc(-c2c(Cl)cccc2Cl)c1C(=O)N/N=C(\N)COc1ccc(Cl)cc1`, 1700 nM.
Take `Oc1c(C(c2ccccn2)N2CCOCC2)ccc2cccnc12` (stereo not drawn): the EC50 was 4860 nM.
For the molecule `NC(=O)c1c(NC(=O)c2ccncc2)sc2c1CCCC2`, the EC50 was 3450 nM.
On to `COc1cnc(-c2ccccn2)nc1NC(C)C`, for which the EC50 was > 15000 nM (inactive).
For the molecule `Brc1ccc(N/N=C(/N=Nc2nn[nH]n2)c2ccccc2)cc1`, the concentration for a half-maximal effect (EC50) is 5600 nM.
Consider `O=[N+]([O-])c1nn(-c2ccc(Cl)cc2)n(O)c1=NCc1cccnc1`, for which the EC50 is 1830 nM.
For the molecule `CCCCC(=O)NNC(=S)NC(=O)C(c1ccccc1)c1ccccc1`, the EC50 was 1720 nM.
The result for `Cc1ccc(C(=O)NC(=O)OCCn2c(C)cnc2[N+](=O)[O-])cc1` reads > 16000 nM (inactive); that for `Brc1cccc(CSc2nnc(-c3ccncc3)o2)c1`, > 15000 nM (inactive).
Turning to `CN1CCN(CC(=O)N2CCn3c4c(c5cc(C6CCCCC6)ccc53)CCCC42)CC1` (stereo not drawn), the EC50 is 4190 nM.
In the case of `Cc1cc(Nc2ccccc2)nc(NCc2ccccc2)n1`, the 50% effective concentration (EC50) was 3350 nM.
Turning to `N=C1/C(=C/c2cccn2-c2ccc([N+](=O)[O-])cc2)C(=O)N=C2SC=CN12`, the EC50 is > 16000 nM (inactive).
Regarding `Fc1cccc2sc(Nc3nnc(-c4ccco4)o3)nc12`, the EC50 was > 15000 nM (inactive).
On to `CC(C(=O)c1ccccc1)[n+]1cccc(Br)c1` (stereo not drawn), for which the EC50 was > 15000 nM (inactive).
As to `COc1cccc(COc2cc3ccccc3nc2C)c1`, the 50% effective concentration (EC50) is 1060 nM.
In the case of `CCC(C)n1cnc2c(c1=O)c1nc3ccccc3nc1n2Cc1ccc(OC)cc1` (stereo not drawn) it was 615 nM; in that of `O=[N+]([O-])c1ccc(O)c(/C=N/NC(=S)Nc2ccc(Cl)cc2Cl)c1`, 1870 nM; in that of `O=C(NNC(=S)Nc1ccc(Cl)cc1)c1ccccc1OC(F)F`, 2600 nM.
`Cc1ccc(C)c(NC(=S)NNC(=O)c2csc(C(C)C)c2)c1`: the concentration for a half-maximal effect (EC50) was 1210 nM.
In the case of `CS(=O)(=O)NN1C(=O)c2ccccc2NC1c1cccc2cccnc12` (stereo not drawn) it was 2130 nM; in that of `O=C(CN1CCN(S(=O)(=O)c2ccccc2)CC1)Nc1ccc2c(c1)CCC2`, 10500 nM.
Take `Cc1onc(-c2ccccc2)c1C(=O)NC(=S)NNC(=O)c1cccnc1`: the EC50 is > 16000 nM (inactive).
For `CC[n+]1c(/C=C/C=C/c2ccc(N(C)C)cc2)sc2ccccc21`, the EC50 was under 120 nM.
`CCNC(=S)NNC(=O)c1cc(-c2ccccc2C)nc2ccccc12`: the 50% effective concentration (EC50) was 1410 nM.
Take `Cn1c(/C=C/c2cccc([N+](=O)[O-])c2)c([N+](=O)[O-])c(=O)n(C)c1=O`: the EC50 is 2530 nM.
In the case of `C=C1C(=O)O[C@@H]2C[C@@H](C)[C@@H]3C4OC4C(=O)[C@@]3(C)[C@@H](O)[C@H]12` (stereo partly drawn), the concentration for a half-maximal effect (EC50) was 219 nM.
The result for `Cn1cccc1-c1cc(C(=O)N2CCc3c([nH]c4ccccc34)C2c2ccccn2)[nH]n1` (stereo not drawn) reads 741 nM; that for `Cc1cc(Br)ccc1OCC(=O)NNC(=O)C(=O)Nc1ccccc1`, 718 nM.
Regarding `O=C(N/N=C/c1sc(N2CCOCC2)nc1-c1ccccc1)c1cccc(S(=O)(=O)N2CCOCC2)c1`, the EC50 was 1150 nM.
Take `O=C(Cc1cccs1)Nc1cccc(-c2nc3ccccc3[nH]2)c1`: the EC50 is 798 nM.
Take `Cc1cc(C)c2nc(NNC(=O)c3cc(-c4cccs4)nc4ccccc34)sc2c1`: the concentration for a half-maximal effect (EC50) was 804 nM.
The result for `CCOc1ccc(/C=C/C2=CC(C)(C)NC(=S)N2)cc1` reads 1160 nM; that for `CC(=O)Nc1ccc(Nc2c3ccccc3nc3ccccc23)cc1`, 5980 nM.
The result for `O=C(c1ccccc1)c1ccc2nc(-c3ccc(NC(=O)c4ccccc4Br)cc3)[nH]c2c1` reads 377 nM; that for `O=C(CC1CC2CCC1C2)Nc1nc(-c2ccccn2)cs1` (stereo not drawn), 641 nM.
